# Source: patent US5932568A, “6-methoxy-1H-benzotriazole-5-carboxamide derivatives and pharmaceutical compositions containing them” (priority 1994, dated 1999)
# Structures can show the parent of a compound that is named as a salt.
# Experiments:
# [1] = system: gastrointestinal motility; assay: Effect on gastrointestinal motility in conscious dog; format: in vivo, beagle dogs; details: 3 and 10 mg/kg intragastric; fed state, conscious dogs
# Protocol: Four healthy beagle dogs per group of both sexes weighing 10 to 12 kg were anesthetized with an i.v. injection of pentobarbital sodium (Nembutal, 30 mg/kg b. wt.), and the abdominal cavity was opened under aseptic conditions. Extraluminal force transducers were sutured onto the seromuscular layer of the gastric antrum, 3 cm proximal to the pyloric ring, the duodenum, the jejunum, the […] terminal ileum in a manner to measure circular muscle contraction, following the method of Ito et al., [cf. Gastrointerol. Japan. 12, 275-283 (1977).] For intragastric (i.g.) administration of drugs, a Silastic tube (Fr. size 6.5) was inserted into the lumen of the gastric body, and the tube was fixed onto the adjacent serosa. The lead wires of these transducers and gastric tube were taken out of abdominal cavity and then brought out through a skin incision made between the scapulae. The outer ends of the lead wires were sutured onto the skin adjacent to the skin incision. After the operation, jacket protector was placed on the dog to protect the lead wires and the Silastic tube. The dogs were housed in individual experimental cages and given dog food at 10 a.m., and water was given freely. Test compounds at 3 and 10 mg/kg were suspended in 0.5% tragacanth solution and given i.g. through the indwelling Silastic tube.
# gastric emptying = assay: Gastric emptying enhancing activity; format: in vivo, Male Wistar rats; details: 60 min before test meal, increase from control
# Protocol: The test was carried out according to the method of Scarpignato et al. [cf. Arch. Int. Pharmacodyn., 246, 286-294 (1980)]. Male Wistar rats, weighing 130-150 g, were fasted for 18 hours before experimentation, and 1.5 ml of a test meal (phenol red 0.05% in a 1.5% aqueous methylcellulose solution) was orally given. Fifteen minutes after administration of the meal the stomach was removed and the amount of phenol red remaining in the stomach was measured. The test compounds, dissolved or suspended in a 0.5% tragacanth solution, were orally administered 60 minutes before administration of the test meal. The rate of gastric emptying was calculated according to the amount of phenol red remaining in the stomach, and the activity of the test compounds was expressed in terms of increase in the emptying rate from the control.
# [2] = system: gastric emptying delayed by cholecystokinin; assay: Effect on gastric emptying delayed by cholecystokinin; format: in vivo, Male Wistar rats; design: key to Effect on gastric emptying delayed by cholecystokinin: +: slightly to moderately improved; ++: markedly improved; ±: no improvement; details: for Effect on gastric emptying delayed by cholecystokinin: cholecystokinin 3 μg/kg s.c.; for Gastric emptying delayed by cholecystokinin (in words): compound 2: 30 or 100 mg/kg, 7b and Compound A: 10, 30 or 100 mg/kg
# Protocol: (§1) The test was carried out according to the method of Scarpignato et al. [c f. Arch. int. Pharmacodyn., 246, 286-294 (1980)]. Male Wistar rats, weighing 130-150 g, were fasted for 18 hours before experimentation, and 1.5 ml of a test meal (phenol red 0.05% in a 1.5% aqueous methylcellulose solution) was orally given. Fifteen minutes after administration of the meal the stomach was removed and the amount of phenol red remaining in the stomach was measured. The test compounds, 10, 30 or 100 mg/kg, each dissolved or suspended in a 0.5% tragacanth solution, were orally administrated 60 minutes before administration of the test meal. Gastric emptying was delayed by subcutaneous administration of cholesystokinin 3 μg/kg or morphine 3 mg/kg 5 minutes before the administration of phenol red. The number of animals used was 5 to 10.
# exploratory activity = assay: Inhibitory effect on exploratory activity; format: in vivo, male mice (Std-ddy strain); details: Mus musculus; oral, 2 h before test; 3 min counting; Probit; read-out: ID50 (inhibition of exploratory activity)
# From the text: A group of 5 male mice (Std-ddy strain, 20-25 g) was used. Two hours after oral administration of the test compounds in the form of 0.5% tragacanth solution or suspension, mice were placed individually in a test box (23×35×30 cm) on Animex activity meter (Farad Co.). Immediately thereafter, activity counting was started and lasted for three minutes. The mean counts of the compound-treated group were compared with those of the corresponding control (non-dosed) group, and the percent inhibition was calculated and the 50% inhibitory dose (ID50) was obtained according to the method of Probit.
# [3] = system: apomorphine-induced vomiting; assay: Inhibitory effect on apomorphine-induced vomiting; format: in vivo, dogs (Beagle); details: Canis lupus familiaris, po, 1 h, 2 h before s.c. apomorphine hydrochloride 0.3 mg/kg, emetic episodes 1 h; for inhibition in vivo at 1 mg/kg: 1.0 mg/kg oral; for inhibition in vivo at 0.1 mg/kg: 0.1 mg/kg oral
# Protocol: A group of 3-4 dogs (Beagle, 8-15 kg) was used for examining inhibitory effects of the test compounds on apomorphine-induced vomiting according to the method of Chen and Ensor [cf. J. Pharmacol. Exp. Ther., 98, 245-250 (1950)]. Test compounds, dissolved or suspended in a 0.5% tragacanth solution were orally administered two hours before the subcutaneous administration of apomorphine hydrochloride (0.3 mg/kg). Then, the emetic episodes were counted for one hour. The emetic episodes of the compound-treated group were compared with those of the corresponding control (non-dosed) group, and the percent inhibition was calculated.
# [4] = system: gastric emptying delayed by morphine; assay: Effect on gastric emptying delayed by morphine; format: in vivo, Male Wistar rats; design: key to Effect on gastric emptying delayed by morphine: +: slightly to moderately improved; ++: markedly improved; ±: no improvement; details: for Effect on gastric emptying delayed by morphine: morphine 3 mg/kg s.c.
# Protocol: as §1
# [5] = system: gastrointestinal motility; assay: Gastrointestinal motility improving activity (overall statement); details: in vivo
# in vivo = details: mouse, oral, mice, 7 days observation
Structure (SMILES),ED50 (exploratory activity) [mg/kg],inhibition in vivo at 1 mg/kg [3] [%],Increase in gastric emptying rate (gastric emptying; 3 mg/kg oral) [%],other results
"CCN(CC)CCNC(=O)c1cc(Cl)c(N)cc1OC.Cl.O [Compound A, 4-Amino-5-chloro-N-[2-(diethylamino)ethyl]-2-methoxybenzamide hydrochloride monohydrate, reference compound]",22.4,86,–,"Interdigestive migrating like-contractions [1]: did not cause interdigestive migrating contractions at all; Increase in gastric emptying rate (gastric emptying; 2 mg/kg oral): 21%; Increase in gastric emptying rate (gastric emptying; 5 mg/kg oral): 26%; Increase in gastric emptying rate (gastric emptying; 10 mg/kg oral): 31%; Effect on gastric emptying delayed by cholecystokinin ([2]; 10 mg/kg oral): ±; Effect on gastric emptying delayed by cholecystokinin ([2]; 30 mg/kg oral): ±; Effect on gastric emptying delayed by cholecystokinin ([2]; 100 mg/kg oral): ±; Gastric emptying delayed by cholecystokinin (in words) [2]: did not show an improving activity against the delay in gastric emptying induced by cholecystokinin or morphine; inhibition in vivo at 0.5 mg/kg ([3]; 0.5 mg/kg oral): 56%; Effect on gastric emptying delayed by morphine ([4]; 10 mg/kg oral): ±; Effect on gastric emptying delayed by morphine ([4]; 30 mg/kg oral): ±; Effect on gastric emptying delayed by morphine ([4]; 100 mg/kg oral): ±; Gastric emptying delayed by morphine (in words) ([4]; 10, 30 or 100 mg/kg): did not show an improving activity against the delay in gastric emptying induced by cholecystokinin or morphine"
"COc1cc2[nH]nnc2cc1C(=O)N[C@@H]1CCCCN(CC2CC2)C1 [Compound 12, (R)-N-(1-cyclopropylmethyl-1H-hexahydroazepin-3-yl)-6-methoxy-1H-benzotriazole-5-carboxamide]",–,92,–,–
"CCN1CCCCC(NC(=O)c2cc3nnn(C)c3cc2OC)C1 (stereo not shown) [Compound 1, N-(1-ethyl-1H-hexahydroazepin-3-yl)-6-methoxy-1-methyl-1H-benzotriazole-5-carboxamide]",> 100,77,–,–
"CCN1CCCCCCC(NC(=O)c2cc3nnn(C)c3cc2OC)C1 (stereo not shown) [Compound 15, N-(1-ethyl-1H-octahydroazonin-3-yl)-6-methoxy-1-methyl-1H-benzotriazole-5-carboxamide]",–,71,–,–
"CCN1CCCCC(NC(=O)c2cc3nnn(CC)c3cc2OC)C1 (stereo not shown) [Compound 4, 1-ethyl-N-(1-ethyl-1H-hexahydroazepin-3-yl)-6-methoxy-1H-benzotriazole-5-carboxamide]",> 100,89,31,–
"CCN1CCCCCCC(NC(=O)c2cc3nn[nH]c3cc2OC)C1 (stereo not shown) [Compound 10, N-(1-ethyl-1H-octahydroazonin-3-yl)-6-methoxy-1H-benzotriazole-5-carboxamide]",–,100,46,–
"CCN1CCCC[C@@H](NC(=O)c2cc3nn[nH]c3cc2OC)C1 [Compound 7a, (R)-N-(1-ethyl-1H-hexahydroazepin-3-yl)-6-methoxy-1H-benzotriazole-5-carboxamide]",> 100,100,–,Gastrointestinal motility improving activity (in words) [5]: especially excellent gastrointestinal motility improving activity; inhibition in vivo at 0.1 mg/kg [3]: 73%
"CCN1CCCC[C@H](NC(=O)c2cc3nn[nH]c3cc2OC)C1 [Compound 8b, (S)-N-(1-ethyl-1H-hexahydroazepin-3-yl)-6-methoxy-1H-benzotriazole-5-carboxamide.3/2 fumarate]",–,19,–,–
"CCN1CCCCC(NC(=O)c2cc3nn[nH]c3cc2OC)C1 (stereo not shown) [Compound 6, N-(1-ethyl-1H-hexahydroazepin-3-yl)-6-methoxy-1H-benzotriazole-5-carboxamide]",> 100,100,28,inhibition in vivo at 0.3 mg/kg ([3]; 0.3 mg/kg oral): 71%
"COc1cc2[nH]nnc2cc1C(=O)NC1CCCCN(CC2CC2)C1 (stereo not shown) [Compound 11, N-(1-cyclopropylmethyl-1H-hexahydroazepin-3-yl)-6-methoxy-1H-benzotriazole-5-carboxamide]",–,92,34,–
"CCN1CCCCCC(NC(=O)c2cc3nn[nH]c3cc2OC)C1 (stereo not shown) [Compound 9, N-(1-ethyl-1H-heptahydroazocin-3-yl)-6-methoxy-1H-benzotriazole-5-carboxamide]",–,100,–,–
"COc1cc2c(cc1C(=O)N[C@@H]1CCCCN(CC3CC3)C1)nnn2C [Compound 13, (R)-N-(1-cyclopropylmethyl-1H-hexahydroazepin-3-yl)-6-methoxy-1-methyl-1H-benzotriazole-5-carboxamide]",–,73,–,–
"CCN1CCCC[C@H](NC(=O)c2cc3nnn(C)c3cc2OC)C1 [Compound 3, (S)-N-(1-ethyl-1H-hexahydroazepin-3-yl)-6-methoxy-1-methyl-1H-benzotriazole-5-carboxamide]",–,36,–,–
"CCN1CCCC[C@@H](NC(=O)c2cc3nnn(C)c3cc2OC)C1 [Compound 2, (R)-N-(1-ethyl-1H-hexahydroazepin-3-yl)-6-methoxy-1-methyl-1H-benzotriazole-5-carboxamide]",> 100,100,41,Interdigestive migrating like-contractions [1]: caused interdigestive migrating like-contractions in fed state in conscious dogs; Gastrointestinal motility improving activity (in words) [5]: especially excellent gastrointestinal motility improving activity; LD50 at 168 h (in vivo): 688 mg/kg; Effect on gastric emptying delayed by cholecystokinin ([2]; 30 mg/kg oral): +; Effect on gastric emptying delayed by cholecystokinin ([2]; 100 mg/kg oral): ++; Gastric emptying delayed by cholecystokinin (in words) [2]: significantly improved gastric emptying delayed by cholecystokinin; inhibition in vivo at 0.1 mg/kg [3]: 80%
"CCN1CCCCCC(NC(=O)c2cc3nnn(C)c3cc2OC)C1 (stereo not shown) [Compound 14, N-(1-ethyl-1H-heptahydroazocin-3-yl)-6-methoxy-1-methyl-1H-benzotriazole-5-carboxamide]",–,100,32,–
"CCN1CCCC[C@@H](NC(=O)c2cc3nnn(CC)c3cc2OC)C1 [Compound 5, (R)-1-ethyl-N-(1-ethyl-1H-hexahydroazepin-3-yl)-6-methoxy-1H-benzotriazole-5-carboxamide]",–,100,35,–
